PMC9933440 (Crystal Growth & Design, 2022)
≈ marks a conversion by molar mass, not a printed value. Where “and” joins values, the source holds several entries; their conditions need not be identical. Equal entries are not always repeated. Where two headings read alike, the source gives them in different places.

Columns and labels:
[1] = cited from earlier work; for dissolution behavior vs parent API: pH 7.5
[2] = Solubility experiments in sodium phosphate buffer pH 6.5, 37 °C (HPLC); conditions: for dissolved MEL / dissolved PRM: highest dissolved concentration, sodium phosphate buffer pH 6.5, 37 °C
Experimental: Solubility experiments were conducted in sodium phosphate buffer solutions at pH 6.5 and 37 °C to simulate intestinal physiological conditions. For each experiment, an excess crystalline solid was sieved through a 300 μm sieve and introduced into a flask with a screw top containing 100 mL of the medium. The solution was stirred at 200 rpm using a magnetic stir bar for 48 h to reach the equilibrium state. […] After each sampling, the volume of the liquid removed from the suspension was not compensated. The withdrawn suspension was filtered through 0.2 μm nylon filters and diluted prior to high-performance liquid chromatography (HPLC) analysis. The solubility experiment for each crystal form was repeated in triplicate. After the last sample collection, the remaining solid material in the suspension was filtered, dried, and characterized by IR and PXRD.
A C18 HPLC column (YMC-Pack ODS-A column, 4.6 mm × 250 mm, 5 μm) with a flow rate of 1 mL min^–1 was employed, and the column temperature was set at 25 °C. The binary mobile phase consisted of acetonitrile and sodium phosphate buffer (pH 6.5) in a volume ratio of 25:75. The samples were diluted appropriately with the mobile phase, and the absorbance was measured at 347 nm.

CN1C(C(=O)Nc2ccccn2)=C(O)c2sc(Cl)cc2S1(=O)=O.Cl [LRM HCl]
dissolution vs parent API (fold) ([1]; pH 7): improved dissolution at pH 7 (x 1.3–1.6)

CN1C(C(=O)Nc2ccccn2)=C(O)c2sc(Cl)cc2S1(=O)=O.N [LRM NH3]
dissolution vs parent API (fold) ([1]; pH 7): improved dissolution at pH 7 (x 1.3–1.6)

CN1C(C(=O)Nc2ccccn2)=C(O)c2sc(Cl)cc2S1(=O)=O.CS(=O)(=O)O [LRM methanesulfonic acid]
dissolution vs parent API (fold) ([1]; pH 7): improved dissolution at pH 7 (x 1.3–1.6)

Cc1cnc(NC(=O)C2=C(O)c3ccccc3S(=O)(=O)N2C)s1.N=C(N)NCCCC(N)C(=O)O [MEL arginine]
dissolution behavior vs parent API [1]: improved dissolution behavior

Cc1cnc(NC(=O)C2=C(O)c3ccccc3S(=O)(=O)N2C)s1.NC(CS)C(=O)O [MEL cysteine]
dissolution behavior vs parent API [1]: improved dissolution behavior at pH 7.5

Cc1cnc(NC(=O)C2=C(O)c3ccccc3S(=O)(=O)N2C)s1.NCC(=O)O [MEL glycine]
dissolution behavior vs parent API [1]: improved dissolution behavior at pH 7.5

Cc1cnc(NC(=O)C2=C(O)c3ccccc3S(=O)(=O)N2C)s1.Nc1ccncc1 [MEL-4AP]
dissolved MEL [2]: 0.68 ± 0.05 mg mL^–1
dissolved MEL, times higher than that of the pure MEL ([2]; pH 6.5, 37 °C): 8.1 times
time for which the supersaturation state is maintained ([2]; pH 6.5, 37 °C): > 300 min
apparent solubility compared with the pure API ([2]; pH 6.5, this work): higher solubility at pH 6.5

CN(C)c1ccncc1.Cc1cnc(NC(=O)C2=C(O)c3ccccc3S(=O)(=O)N2C)s1 [MEL-4DMP]
dissolved MEL [2]: 0.85 ± 0.02 mg mL^–1
time for which the supersaturation state is maintained ([2]; pH 6.5): more than 200 min
dissolved MEL, times higher than that of the pure MEL ([2]; pH 6.5, 37 °C): 10.2 times

CN1C(C(=O)Nc2ccccn2)=C(O)c2ccccc2S1(=O)=O.Cc1nc(-c2ccc(OCC(C)C)c(C#N)c2)sc1C(=O)O [PRM febuxostat]
dissolution vs parent API (fold) ([1]; pH 6.8): 2.8 x

CN1C(C(=O)Nc2ccccn2)=C(O)c2ccccc2S1(=O)=O.COc1cc(/C=C/C(=O)O)ccc1O [PRM ferulic acid]
IDR vs parent API (fold) ([1]; pH 2): 1.7 x

CN1C(C(=O)Nc2ccccn2)=C(O)c2ccccc2S1(=O)=O.COC(=O)c1ccc(O)cc1 [PRM methylparaben]
IDR vs parent API ([1]; pH 1.2): no solubility and IDR advantages
dissolution rates in the sink condition ([1]; pH 1.2): superior dissolution rates

CN1C(C(=O)Nc2ccccn2)=C(O)c2ccccc2S1(=O)=O [PRM, Piroxicam]
dissolved PRM [2]: 0.39 mg mL^–1 and 0.39 ± 0.01 mg mL^–1
time to highest solubility / maximum dissolved concentration / equilibrium ([2]; pH 6.5): 60 min
solubility thermodynamic at 48 h ([2]; pH 6.5, aqueous buffer): 140 µg/mL (≈ 423 µM)

CN1C(C(=O)Nc2ccccn2)=C(O)c2ccccc2S1(=O)=O.Nc1ccncc1 [PRM-4AP]
dissolved PRM [2]: 1.08 mg mL^–1 and 1.08 ± 0.02 mg mL^–1
dissolved PRM, times higher than that of the anhydrous PRM ([2]; pH 6.5, 37 °C): 2.8 times
apparent solubility compared with the pure API ([2]; pH 6.5, this work): higher solubility

CN(C)c1ccncc1.CN1C(C(=O)Nc2ccccn2)=C(O)c2ccccc2S1(=O)=O [PRM-4DMP]
dissolved PRM [2]: 1.07 mg mL^–1 and 1.07 ± 0.01 mg mL^–1
apparent solubility compared with the pure API ([2]; pH 6.5): higher solubility
dissolved PRM, times higher than that of the anhydrous PRM ([2]; pH 6.5, 37 °C): 2.8 times

C1CNCCN1.CN1C(C(=O)Nc2ccccn2)=C(O)c2ccccc2S1(=O)=O.CN1C(C(=O)Nc2ccccn2)=C(O)c2ccccc2S1(=O)=O [PRM-PPZ]
dissolved PRM [2]: 0.43 mg mL^–1 and 0.43 ± 0.04 mg mL^–1
apparent solubility compared with the pure API ([2]; pH 6.5): higher solubility
dissolved PRM, times higher than that of the anhydrous PRM ([2]; pH 6.5, 37 °C): 1.1 times

CN1C(C(=O)Nc2ccccn2)=C(O)c2sccc2S1(=O)=O.O=C(O)CO [TNM glycolic acid]
IDR vs parent API ([1]; pH 4.5): no IDR advantage at pH 4.5 and 6.8
IDR vs parent API ([1]; pH 6.8): no IDR advantage at pH 4.5 and 6.8

CN1C(C(=O)Nc2ccccn2)=C(O)c2sccc2S1(=O)=O.O=C1NS(=O)(=O)c2ccccc21 [TNM saccharin]
IDR vs parent API ([1]; pH 4.5): no IDR advantage at pH 4.5 and 6.8
IDR vs parent API ([1]; pH 6.8): no IDR advantage at pH 4.5 and 6.8

CN1C(C(=O)Nc2ccccn2)=C(O)c2sccc2S1(=O)=O.O=C(O)CCC(=O)O [TNM succinic acid]
IDR vs parent API ([1]; pH 4.5): no IDR advantage at pH 4.5 and 6.8
IDR vs parent API ([1]; pH 6.8): no IDR advantage at pH 4.5 and 6.8
